Where two headings read alike, the source gives them in different places.
Key:
Psoroptes cuniculi = experiment: Acaricidal activity on isolated mites; format: in vivo
Experimental: Die akarizide Aktivität der Stoffe wird an isolierten Milben Psoroptes cuniculi als Erreger der Psoroptesräude bei Kaninchen geprüft. Von frischen Verkrustungen von Kaninchen mit Psoroptesräude, werden zu diesem Zweck 50 Milbenexemplare (Larven, Nymphen, Imago) gewählt und in Petri-Schalen auf ein Filterpapierblatt übertragen. Dann bringt man auf Milben und die ganze Blattoberfläche 1,5 ml zu prüfende wäßrige Stofflösung in destilliertem Wasser auf. Die Schale wird mit Deckel verschlossen und in einen Thermostat bei 30 °C und Feuchtegehalt von 90 % angeordnet. Der Wirkstoff wird als wäßrige Lösung mit einer zwischen 0,0039 und 4 % liegenden Konzentration genommen. Als Vergleichsmuster dient gleichzeitig eine wäßrige Lösung von Chlorophos. Milben werden im Kontrollversuch (Kontrolle auf Lebensfähigkeit)mit 1,5 ml physiologischer Lösung behandelt und in einen anderen Thermostat unter gleichen Temperatur- und Feuchtigkeitsbedingungen aufgestellt.
Nach 1, 2, 4, 6 Stunden und alle 24 Stunden betrachtet man die Milben im Mikroskop und zählt die toten Milben. Aufgrund der Milbenvernichtung durch einen 24-stündigen Kontakt mit dem Wirkstoff ermittelt man die LK-50 Werte. Die Versuche werden 5mal wiederholt. Arithmetische Mittelwerte gibt Tabelle 14 an.

Larven von Fichtenböcken = experiment: Insecticidal activity, topical application to larvae; format: in vivo, Fichtenböcke; conditions: 10%ige Lösung
Description: Die hohe insektizide Aktivität von Kalium-N-(vinyloxyathyl)dithiocarbamat und Zink-bis-(N-vinyloxyathyl- dithiocarbamat) wurde in Versuchen an Larven von Fichtenböcken nachgewiesen. Geprüft wurden die 10%igen wäßrigen (oder alkoholischen) Lösungen, welche auf die Kopfbrust von Larven aufgebracht wurden. In Versuchen standen je 20 Larven zur Verfügung. Die Versuche wurden dreimal wiederholt. Die Mortalität wurde nach 1, 24 und 48 Stunden ermittelt. Die insektizide Aktivität der erfindungsgemäßen Stoffe ist bedeutend höher als die von Chlorophos.
Die Prüfungen auf insektizide Aktivität werden an Larven von Fichtenböcken durchgeführt. Geprüft werden eine 10%ige wäßrige Lösung von Kalium-N-(vinyloxyäthyl)dithiocarbamat und eine 10%ige alkoholische Lösung von Zink-bis-N-(vinyloxyathyldithiocarbamat). In jedem Versuch stehen je 20 Larven zur Verfügung. Die Mortalität wird nach 1, 24 und 48 Stunden ermittelt. Die zu prüfenden Lösungen werden auf die Kopfbrust von Larven aufgebracht.

Fusarium oxysporum = experiment: Soil fungicide test (fungal discs in treated soil); format: cell-based; design: key: Das Vorhandensein (+); das Fehlen (-) des wachsenden Myzels um die Scheibe herum; conditions: 160 mg/kg Boden
Experimental: (§1) Eine 50 g schwere Bodenprobe bringt man in ein Glasgefäß ein, sterilisiert innerhalb von 2 Stunden unter einem Druck von 2 atm, gibt dann dem Boden das Präparat als wäßrige Lösung ausgehend von 160 mg/kg zu, wonach in den Boden Scheiben mit Kulturen folgender Pilze Fusarium oxysporum, Verticillium dahliae, Rhizoctonia solani, Pythium ultimum untergebracht werden.
(§2) Nach 24 und 48 Stunden werden die Scheiben in fließendem Wasser, dann in sterilem Wasser gewaschen, auf sterilem Filterpapier getrocknet und auf eine reine Agarplatte gelegt. Das Vorhandensein (+) oder das Fehlen (-) des wachsenden Myzels um die Scheibe herum wies auf die Wirksamkeit des Präparats. Als Vergleichsmuster diente dabei Karbathion. Die Prüfergebnisse sind in der Tabelle 5 dargestellt.

Pythium ultimum = experiment: Soil fungicide test (fungal discs in treated soil); format: cell-based; design: key: Das Vorhandensein (+); das Fehlen (-) des wachsenden Myzels um die Scheibe herum; conditions: 160 mg/kg Boden
Experimental: as §1, §2

Rhizoctonia solani [1] = experiment: Soil fungicide test (fungal discs in treated soil); format: cell-based; design: key: Das Vorhandensein (+); das Fehlen (-) des wachsenden Myzels um die Scheibe herum; conditions: 160 mg/kg Boden
Experimental: as §1, §2

Verticillium dahliae [2] = experiment: Soil fungicide test (fungal discs in treated soil); format: cell-based; design: key: Das Vorhandensein (+); das Fehlen (-) des wachsenden Myzels um die Scheibe herum; conditions: 160 mg/kg Boden
Experimental: as §1, §2

Wurzelfäule von Gurken = experiment: Cucumber root rot test in treated non-sterile soil; format: in vivo; conditions: 200 kg/ha Wirkstoff
Description: Man nimmt 100 g unsterilen Boden, enthaltend 1 Teil Humus, 1 Teil Rasenboden, 1 Teil Sand, gibt darin ein Präparat, das Zink-bis-(N-vinyloxyäthyldithiocarbamat) ausgehend von 200 kg/ha Wirkstoff enthält.
Das Präparat wird wie folgt hergestellt: Einer gesättigten Lösung des genannten Salzes in Azeton gibt man einige Tropfen Emulgiermittel (hydroxyäthylierte Alkylphenole) zu und verdünnt mit Wasser. Innerhalb von 7 bis 8 Tagen begießt man dann bodenhaltige Gefäße mit Wasser, bis der Boden in einen Zustand gebracht wird, der 60% der vollen Wasseraufnahmekapazität des Feldes beträgt. Nach dieser Zeit erfolgt die Aussaat von Gurkensamen, eingequollen im voraus in einer 0,1%igen KMn04-Lösung innerhalb von 2 Stunden. In jedes Gefäß werden je 10 Samen auf eine Tiefe von 1 bis 1,5 cm gesät. Nach 7 bis 9 Tagen berücksichtigt man die Keimungsfähigkeit von Samen, dann bestimmt man nach 3 Tagen den Befallumfang von Pflanzen durch Wurzelfäule, hervorgerufen durch einen Erregerkomplex. Die Versuche werden viermal wiederholt, als Vergleichsmuster dient Milon. Die Prüfergebnisse zeigt Tabelle 9.

Aspergillus niger = experiment: Mycelial growth inhibition on agar (contact activity); format: cell-based
Paecilomyces varioti = experiment: as above; format: cell-based; conditions: Paecilomyces, 120 h, Wirkstoffkonzentration 0,003 %
Experimental: (§3) Die Prüfungen werden nach dem Verfahren zur Ermittlung der Kontaktaktivität durchgeführt. Man verwendet das in Wasser gelöste Kalium-N-(vinyloxyäthyl)dithiocarbamat, führt es in ein Nährmedium ein und vergießt auf Petri-Schalen. Nach 24 Stunden wird mit Pilzmyzelium nach einem Stichverfahren geimpft. Dann temperiert man die Schalen innerhalb von 5 Tagen bei einer zwischen 24 und 26 °C liegenden Temperatur und mißt den Durchmesser von Pilzkolonien, ermittelt den Prozentsatz der Hemmung des Myzelwachstums (S) ausgehend von Angaben am 5. Tag nach der Abbott-Formel [drawing 13] worin dc für den Durchmesser der Pilzkolonien, de für den Durchmesser von Pilzkolonien in der Schale stehen, wo ein die zu prüfenden Stoffe enthaltendes Medium vorhanden ist. Dieses Verfahren zur Ermittlung der mikrobiologischen Aktivität ist in anderen Beispielen verwendet.

Penicillium funiculosum = experiment: as above; format: cell-based; conditions: Talaromyces funiculosus, 120 h, Wirkstoffkonzentration 0,003 %
Experimental: as §3

Stereum hirsutum = experiment: as above; format: cell-based; conditions: Stereum hirsutum, 120 h, Wirkstoffkonzentration 0,003 %
Experimental: as §3

Chaetomium globosum = experiment: as above; format: cell-based; conditions: Chaetomium globosum, 120 h; Wirkstoffkonzentration 0,003 %; Tabelle 3; read-out: Mycelhemmung, in %
Experimental: as §3

Botrytis cinerea = experiment: as above; format: cell-based; conditions: 120 h, Kartoffel-Glukose-Nährmedium, read-out: Myzelhemmung in %
Experimental: as §3
(§4) Tabelle 2 zeigt die Angaben für die fungizide Aktivität von Kalium-N-(vinyloxyäthyl)dithiocarbamat und bekannten wirksamen Fungiziden Poly arbazin und TMTD. Der zu prüfende Stoff wurde im Laufe der Versuche in Wasser aufgelöst, und die Kulturen wurden auf einem Kartoffel-Glukose-Nährmedium gezüchtet.

Fusarium moniliforme = experiment: as above; format: cell-based
Experimental: as §3, §4

Fusarium sambucinum = experiment: as above; format: cell-based
Experimental: as §3, §4

Venturia inaegualis = experiment: as above; format: cell-based; conditions: 120 h, Kartoffel-Glukose-Nährmedium, read-out: Myzelhemmung in %
Experimental: as §3, §4

Verticillium dahliae [3] = experiment: as above; format: cell-based; conditions: 120 h, Kartoffel-Glukose-Nährmedium, read-out: Myzelhemmung in %
Experimental: as §3, §4

Rhizoctonia solani [4] = experiment: as above; format: cell-based; conditions: Rhizoctonia solani, 120 h; Wirkstoffkonzentration 0,003 %; Würzeagar; Tabelle 7; read-out: Myzelhemmung in %
Experimental: as §3
Die fungizide Aktivität von Zink-bis-(N-vinyloxyäthyldithiocarbamat) gegen reine Kulturen von Pilzen Fusarium moniliforme, Fusarium sambucinum, Aspergillus niger, Rhizoctonia solani, Cladosporium resinae, Cladosporium cladosporioides, Acremonium cowum, Acremonium charticola, Penicillium chrysogenum, Penicillium charlesii Smith, Penicillium funiculosum, Geotrichum candidum Link, Walrotiela subiculesa, Oidium sp., Paecilomyces varioti, Stereum hirsutum wird gemäß Beispiel 8 untersucht.
(§5) Als Nährmedium dient Würzeagar.

Sphaeropsis malorum = experiment: as above; format: cell-based; conditions: 120 h; Wirkstoffkonzentration 0,003 %; Würzeagar; Tabelle 7; read-out: Myzelhemmung in %
Experimental: as §3, §5

[5] = Würzeagar, Tabelle 8, read-out: Myzelhemmung in %
[6] = Tabelle 3, read-out: Mycelhemmung, in %
[7] = Wirkstoffkonzentration 0,003 %, Würzeagar, Tabelle 7

## COP(=O)(OC)C(O)C(Cl)(Cl)Cl (stereo not drawn) [Chlorophos, O,O-Dimethyl-(1-oxy-2,2,2-trichloräthyl)phosphonat, reference compound]
Psoroptes cuniculi; 24-stündiger Kontakt mit dem Wirkstoff
  LK-50 %: 0,8%
Psoroptes cuniculi; Konzentration 0,5 bis 1,0 %
  Vernichtung von 100 % der Milben nach Stunden: 48 Stunden
Psoroptes cuniculi; Konzentration 0,25 %
  Vernichtung von 100 % der Milben nach Stunden: 72 Stunden
Larven von Fichtenböcken; Wirkungsdauer 1 Stunde
  Mortalität von Larven der Fichtenböcke: 0%
Larven von Fichtenböcken; Wirkungsdauer 24 Stunden
  Mortalität von Larven der Fichtenböcke: 20%
Larven von Fichtenböcken; Wirkungsdauer 48 Stunden
  Mortalität von Larven der Fichtenböcke: 57%

## CNC(=S)[S-].[Na+] [Karbathion, reference compound]
Fusarium oxysporum; Haltedauer 24 Stunden
  wachsendes Myzel um die Scheibe: -
Fusarium oxysporum; Haltedauer 48 Stunden
  wachsendes Myzel um die Scheibe: -
Pythium ultimum; Haltedauer 24 Stunden
  wachsendes Myzel um die Scheibe: -
Pythium ultimum; Haltedauer 48 Stunden
  wachsendes Myzel um die Scheibe: -
Rhizoctonia solani [1]; Haltedauer 24 Stunden
  wachsendes Myzel um die Scheibe: -
Rhizoctonia solani [1]; Haltedauer 48 Stunden
  wachsendes Myzel um die Scheibe: -
Verticillium dahliae [2]; Haltedauer 24 Stunden
  wachsendes Myzel um die Scheibe: -
Verticillium dahliae [2]; Haltedauer 48 Stunden
  wachsendes Myzel um die Scheibe: -

## CN1CSC(=S)N(C)C1 [Milon, 3,5-Dimethyltetrahydro-1,3,5-thiadizin-1-thion-2, reference compound]
Wurzelfäule von Gurken; Gurkensamen
  Keimungshäufigkeit in %: 70,3%
Wurzelfäule von Gurken; Wurzelfäule von Gurken
  Entwicklung von Krankheiten in %: 0%

## Oc1c(Cl)c(Cl)c(Cl)c(Cl)c1Cl [Pentachlorphenol, reference compound]
Aspergillus niger; Aspergillus niger, 120 h, Wirkstoffkonzentration 0,003 %, Würzeagar, Tabelle 8, read-out: Myzelhemmung in %
  inhibition of growth at 0.003 %: 100%
Paecilomyces varioti; [5]
  inhibition of growth at 0.003 %: 100%
Penicillium funiculosum; [5]
  inhibition of growth at 0.003 %: 100%
Stereum hirsutum; [5]
  inhibition of growth at 0.003 %: 100%

## O=C(Nc1ccccc1)c1ccccc1O [Salizylanilid, reference compound]
Aspergillus niger; Aspergillus niger, 120 h, Wirkstoffkonzentration 0,003 %, Tabelle 3, read-out: Mycelhemmung, in %
  inhibition of growth at 0.003 %: 100%
Chaetomium globosum
  inhibition of growth at 0.003 %: 100%
Paecilomyces varioti; [6]
  inhibition of growth at 0.003 %: 100%
Penicillium funiculosum; [6]
  inhibition of growth at 0.003 %: 100%
Stereum hirsutum; [6]
  inhibition of growth at 0.003 %: 100%

## CN(C)C(=S)SSC(=S)N(C)C [TMTD, Tetramethylthiuramdisulfid, reference compound]
Botrytis cinerea; Wirkstoffkonzentration 0,01 %
  inhibition of growth at 0.01 %: 100%
Botrytis cinerea; Wirkstoffkonzentration 0,003 %
  inhibition of growth at 0.003 %: 100%
Fusarium moniliforme; Fusarium verticillioides, 120 h, Wirkstoffkonzentration 0,01 %, Kartoffel-Glukose-Nährmedium, read-out: Myzelhemmung in %
  inhibition of growth at 0.01 %: 100%
Fusarium moniliforme; Fusarium verticillioides, 120 h, Wirkstoffkonzentration 0,003 %, Kartoffel-Glukose-Nährmedium, read-out: Myzelhemmung in %
  inhibition of growth at 0.003 %: 100%
Fusarium moniliforme; [7]
  Myzelhemmung in %: 100%
Fusarium sambucinum; Fusarium sambucinum, 120 h, Wirkstoffkonzentration 0,01 %, Kartoffel-Glukose-Nährmedium, read-out: Myzelhemmung in %
  inhibition of growth at 0.01 %: 100%
Fusarium sambucinum; Fusarium sambucinum, 120 h, Wirkstoffkonzentration 0,003 %, Kartoffel-Glukose-Nährmedium, read-out: Myzelhemmung in %
  inhibition of growth at 0.003 %: 100%
Fusarium sambucinum; [7]
  Myzelhemmung in %: 100%
Venturia inaegualis; Wirkstoffkonzentration 0,01 %
  inhibition of growth at 0.01 %: 100%
Venturia inaegualis; Wirkstoffkonzentration 0,003 %
  inhibition of growth at 0.003 %: 100%
Verticillium dahliae [3]; Wirkstoffkonzentration 0,01 %
  inhibition of growth at 0.01 %: 100%
Verticillium dahliae [3]; Wirkstoffkonzentration 0,003 %
  inhibition of growth at 0.003 %: 100%
Aspergillus niger; Aspergillus niger, 120 h, Wirkstoffkonzentration 0,01 %, Kartoffel-Glukose-Nährmedium, read-out: Myzelhemmung in %
  inhibition of growth at 0.01 %: 100%
Aspergillus niger; Aspergillus niger, 120 h, Wirkstoffkonzentration 0,003 %, Kartoffel-Glukose-Nährmedium, read-out: Myzelhemmung in %
  inhibition of growth at 0.003 %: 100%
Aspergillus niger; [7]
  Myzelhemmung in %: 100%
Rhizoctonia solani [4]
  inhibition of growth at 0.003 %: 100%
Sphaeropsis malorum
  inhibition of growth at 0.003 %: 100%

Source: EP0252983B1, “SALTS OF N-(VINYLOXIETHYL)DITHIOCARBAMIC ACID, METHOD OF OBTAINING THEREOF AND […] ON THEM” (priority 1985, dated 1987)
